Assay results from patent US20230113037A1 (Bayer Aktiengesellschaft, priority 2019, published 2023).
Read-outs that look alike come from different tables or passages of the source.

Experiments:
AHR [1] = biological target: T1, AHR (Homo sapiens, UniProt P35869); assay: In vitro assay 1: antagonism in human cell line (AHR transactivation, firefly luciferase reporter, kynurenic acid prestimulated); assay type: cell-based; settings: AHR Antagonism Human IC50 [M]
T1 construct: U87 MG glioblastoma cells (ATCC #HTB-14) endogenously expressing AHR; endogenous in cells; host or cells: U87 MG glioblastoma cells (ATCC #HTB-14)
T1 sequence (P35869 11-848): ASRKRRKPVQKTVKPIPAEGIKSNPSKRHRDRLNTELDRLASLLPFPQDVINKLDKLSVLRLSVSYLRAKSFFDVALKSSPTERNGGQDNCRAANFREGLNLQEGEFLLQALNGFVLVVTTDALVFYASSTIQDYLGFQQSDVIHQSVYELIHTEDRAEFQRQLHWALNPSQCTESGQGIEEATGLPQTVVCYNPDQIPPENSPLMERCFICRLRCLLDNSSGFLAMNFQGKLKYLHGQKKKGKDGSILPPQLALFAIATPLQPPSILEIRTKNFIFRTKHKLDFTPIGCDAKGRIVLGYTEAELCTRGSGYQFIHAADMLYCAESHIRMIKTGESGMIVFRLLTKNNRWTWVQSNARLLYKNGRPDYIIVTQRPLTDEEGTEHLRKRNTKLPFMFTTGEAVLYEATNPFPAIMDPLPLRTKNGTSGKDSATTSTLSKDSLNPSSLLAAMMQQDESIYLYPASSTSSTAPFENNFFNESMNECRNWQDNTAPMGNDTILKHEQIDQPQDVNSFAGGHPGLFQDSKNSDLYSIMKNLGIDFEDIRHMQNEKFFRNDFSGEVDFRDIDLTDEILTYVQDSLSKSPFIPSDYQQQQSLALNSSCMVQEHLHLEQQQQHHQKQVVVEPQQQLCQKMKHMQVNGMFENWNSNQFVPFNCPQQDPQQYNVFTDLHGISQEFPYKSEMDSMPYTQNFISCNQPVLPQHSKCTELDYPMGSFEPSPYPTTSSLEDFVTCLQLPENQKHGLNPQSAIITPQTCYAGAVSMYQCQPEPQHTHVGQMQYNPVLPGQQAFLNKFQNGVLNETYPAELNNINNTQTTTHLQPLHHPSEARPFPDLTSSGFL
Method in brief: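 U87 MG glioblastoma cells with endogenous AHR, stably carrying a DRE-driven firefly luciferase reporter and constitutive Renilla reporter, prestimulated with kynurenic acid before compound addition. Firefly and Renilla read by dual luciferase; Renilla flags toxicity; normalized to controls (150 μM kynurenic acid + 5 μM staurosporine as full inhibition); repeat values averaged or median.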

AHR [2] = biological target: T2, AHR (Mus musculus, UniProt P30561); assay: In vitro assay 3: antagonism in mouse cell line (AHR transactivation, firefly luciferase reporter, kynurenic acid prestimulated); assay type: cell-based
T2 sequence (P30561 1-848 P471L/N533S/M589L): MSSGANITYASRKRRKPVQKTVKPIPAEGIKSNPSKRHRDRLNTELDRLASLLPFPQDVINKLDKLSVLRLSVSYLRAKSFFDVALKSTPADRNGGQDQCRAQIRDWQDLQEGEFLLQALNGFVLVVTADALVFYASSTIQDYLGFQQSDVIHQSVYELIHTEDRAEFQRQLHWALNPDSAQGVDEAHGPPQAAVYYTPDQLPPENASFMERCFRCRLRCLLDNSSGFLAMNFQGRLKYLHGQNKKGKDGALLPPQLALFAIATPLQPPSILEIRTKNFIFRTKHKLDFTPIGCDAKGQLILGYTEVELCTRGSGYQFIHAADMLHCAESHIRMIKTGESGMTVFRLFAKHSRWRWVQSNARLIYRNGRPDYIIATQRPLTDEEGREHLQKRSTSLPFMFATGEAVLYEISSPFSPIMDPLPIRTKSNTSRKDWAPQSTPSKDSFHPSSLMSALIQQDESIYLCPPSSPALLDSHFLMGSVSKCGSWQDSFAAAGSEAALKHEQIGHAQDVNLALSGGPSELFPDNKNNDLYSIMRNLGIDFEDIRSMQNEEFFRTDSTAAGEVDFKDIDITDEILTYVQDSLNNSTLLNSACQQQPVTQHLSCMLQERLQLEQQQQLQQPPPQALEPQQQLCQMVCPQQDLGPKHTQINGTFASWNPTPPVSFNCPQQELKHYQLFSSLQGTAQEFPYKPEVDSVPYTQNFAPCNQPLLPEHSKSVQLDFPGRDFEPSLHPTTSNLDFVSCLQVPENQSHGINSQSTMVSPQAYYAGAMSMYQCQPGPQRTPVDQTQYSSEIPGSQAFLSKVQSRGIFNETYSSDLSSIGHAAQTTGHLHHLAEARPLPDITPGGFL
Method in brief: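 Cells were first stimulated with kynurenic acid, then exposed to test compound, after which firefly luciferase from a DRE-containing AHR reporter was read out. Signal was scaled between positive and negative controls. Cells not given kynurenic acid provided the inhibition reference.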

[3] = Hepa 1c1c7 cells, 200 μM kynurenic acid, 20 hours, firefly luciferase reporter, read-out: AHR Antagonism Mouse IC50
[4] = read-out: AHR Antagonism Mouse IC50, mouse Hepa 1c1c7 cells, 200 μM kynurenic acid, 20 hours
[5] = mouse Hepa 1c1c7 cells, 200 μM kynurenic acid, 20 hours, read-out: AHR Antagonism Mouse IC50

| Compound | IC50 (AHR [1]; firefly luciferase reporter) [M] | IC50 (AHR [2]; [3]) [nM] | IC50 (AHR [1]) [M] | IC50 (AHR [2]; [4]) [nM] | IC50 (AHR [2]; [5]) [nM] |
| --- | --- | --- | --- | --- | --- |
| CCCCNC(=O)[C@@H](C)Nc1nc2c(Br)cccc2c2nc(-c3cnn(C)c3)nn12 [Example 794, N^2-[7-bromo-2-(1-methyl-1H-pyrazol-4-yl)[1,2,4]triazolo[1,5-c]quinazolin-5-yl]-N-butyl-D-alaninamide] | 1.76e-08 | 21.2 | – | – | – |
| O=C1NCCCC[C@H]1Nc1nc2c(F)cccc2c2nc(-c3cccc(F)c3)nn12 [Example 137, (3R)-3-{[7-fluoro-2-(3-fluorophenyl)[1,2,4]triazolo[1,5-c]quinazolin-5-yl]amino}azepan-2-one] | – | – | 2.16e-09 | 0.823 | – |
| CC[C@H](Nc1nc2c(Br)cccc2c2nc(-c3ccc(OC)cc3OC(F)(F)F)nn12)C(N)=O [Example 568, (2S)-2-({7-bromo-2-[4-methoxy-2-(trifluoromethoxy)phenyl][1,2,4]triazolo[1,5-c]quinazolin-5-yl}amino)butanamide] | – | – | 3.31e-07 | 29.9 | – |
| Cc1nn(C2CC2)c(C)c1-c1nc2c3cccc(C(F)(F)F)c3nc(N[C@@H]3CCCCNC3=O)n2n1 [Example 745, (3R)-3-{[2-(1-cyclopropyl-3,5-dimethyl-1H-pyrazol-4-yl)-7-(trifluoromethyl)[1,2,4]triazolo[1,5-c]quinazolin-5-yl]amino}azepan-2-one] | – | – | 4.41e-09 | – | 1.14 |
| O=C1NCCCC[C@@H]1Nc1nc2ccccc2c2nc(-c3cc(Cl)ccc3OC(F)(F)F)nn12 [Example 498, (3S)-3-({2-[5-chloro-2-(trifluoromethoxy)phenyl][1,2,4]triazolo[1,5-c]quinazolin-5-yl}amino)azepan-2-one] | – | – | > 2e-05 | – | 700 |
| CC[C@H](Nc1nc2ccccc2c2nc(-c3ccc(Br)cc3OC(F)(F)F)nn12)C(N)=O [Example 524, (2S)-2-({2-[4-bromo-2-(trifluoromethoxy)phenyl][1,2,4]triazolo[1,5-c]quinazolin-5-yl}amino)butanamide] | – | – | 1.3e-07 | – | 17.7 |
| CN1CC[C@@H](Nc2nc3ccccc3c3nc(-c4ccsc4)nn23)C1=O [Example 345, (3R)-1-methyl-3-{[2-(thiophen-3-yl)[1,2,4]triazolo[1,5-c]quinazolin-5-yl]amino}pyrrolidin-2-one] | – | – | 1.24e-07 | – | 27 |
| COc1ccc(-c2nc3c4cccc(Br)c4nc(N[C@H](C)C(=O)N4CC5(CN(C)C5)C4)n3n2)cc1 [Example 918, (2R)-2-{[7-bromo-2-(4-methoxyphenyl)[1,2,4]triazolo[1,5-c]quinazolin-5-yl]amino}-1-(6-methyl-2,6-diazaspiro[3.3]heptan-2-yl)propan-1-one] | 3.07e-08 | 31.9 | – | – | – |
| COc1ccc(-c2nc3c4cccc(C(=O)OC(C)C)c4nc(N[C@@H]4CCCCNC4=O)n3n2)cc1 [Example 653, propan-2-yl 2-(4-methoxyphenyl)-5-{[(3R)-2-oxoazepan-3-yl]amino}[1,2,4]triazolo[1,5-c]quinazoline-7-carboxylate] | – | – | 2.58e-07 | – | > 20000 |
| COCc1noc(-c2nc3c4ccccc4nc(N[C@@H]4CCCCNC4=O)n3n2)n1 [Example 303, (3R)-3-({2-[3-(Methoxymethyl)-1,2,4-oxadiazol-5-yl][1,2,4]triazolo[1,5-c]quinazolin-5-yl}amino)azepan-2-one] | – | – | 4.52e-07 | – | 293 |
| C[C@@H](Nc1nc2c(Br)cccc2c2nc(-c3cnn(C)c3)nn12)C(=O)N1CCNCC1 [Example 985, (2R)-2-{[7-bromo-2-(1-methyl-1H-pyrazol-4-yl)[1,2,4]triazolo[1,5-c]quinazolin-5-yl]amino}-1-(piperazin-1-yl)propan-1-one hydrogen chloride (1/1)] | 6.49e-08 | 95 | – | – | – |
| CC[C@@H](Nc1nc2ccccc2c2nc(-c3cccc(OC(F)(F)F)c3)nn12)C(N)=O [Example 314, (2R)-2-({2-[3-(trifluoromethoxy)phenyl][1,2,4]triazolo[1,5-c]quinazolin-5-yl}amino)butanamide] | – | – | 6.9e-09 | – | 0.922 |
| CCC[C@@H](Nc1nc2ccccc2c2nc(-c3cscc3OC)nn12)C(=O)NC [Example 339, N^2-[2-(4-methoxythiophen-3-yl)[1,2,4]triazolo[1,5-c]quinazolin-5-yl]-N-methyl-D-norvalinamide] | – | – | 3.37e-07 | – | 169 |
| CS(=N)(=O)c1ccccc1-c1nc2c3ccccc3nc(N[C@@H]3CCCCNC3=O)n2n1 (single isomer, unassigned) [Example 661] | – | – | 1.53e-07 | 139 | – |
| COc1ccc(-c2nc3c4ccccc4nc(NC4CNCCNC4=O)n3n2)cc1 (single isomer, unassigned) [Example 35, 6-{[2-(4-methoxyphenyl)[1,2,4]triazolo[1,5-c]quinazolin-5-yl]amino}-1,4-diazepan-5-one] | – | – | 1.55e-06 | – | 60.4 |
| Cn1cc(-c2nc3c4cccc(Br)c4nc(N[C@H]4CS(=N)(=O)CCNC4=O)n3n2)cn1 (single isomer, unassigned) [Example 857] | 4.25e-06 | 2140 | – | – | – |
| O=C1NCCCC[C@H]1Nc1nc2ccccc2c2nc(-c3ccc(Br)cc3Cl)nn12 [Example 200, (3R)-3-{[2-(4-bromo-2-chlorophenyl)[1,2,4]triazolo[1,5-c]quinazolin-5-yl]amino}azepan-2-one] | – | – | 2.87e-09 | – | > 20000 |
| O=C1NCCNC[C@H]1Nc1nc2c(C(F)(F)F)cccc2c2nc(-c3cnn(C4CC4)c3)nn12 [Example 963, (6R)-6-{[2-(1-cyclopropyl-1H-pyrazol-4-yl)-7-(trifluoromethyl)[1,2,4]triazolo[1,5-c]quinazolin-5-yl]amino}-1,4-diazepan-5-one] | 1.76e-09 | 4.79 | – | – | – |
| CCn1cc(-c2nc3c4cccc(Br)c4nc(N[C@@H]4CCCCNC4=O)n3n2)c(C)n1 [Example 825, (3R)-3-{[7-bromo-2-(1-ethyl-3-methyl-1H-pyrazol-4-yl)[1,2,4]triazolo[1,5-c]quinazolin-5-yl]amino}azepan-2-one] | 3.72e-10 | 0.475 | – | – | – |
| O=C1NCCNC[C@H]1Nc1nc2cccc(C(F)(F)F)c2c2nc(-c3ccc(F)cc3)nn12 [Example 287, (6R)-6-{[2-(4-fluorophenyl)-10-(trifluoromethyl)[1,2,4]triazolo[1,5-c]quinazolin-5-yl]amino}-1,4-diazepan-5-one] | – | – | 6.55e-06 | – | 756 |
| Cc1nn(C)cc1-c1nc2c3cccc(Br)c3nc(N[C@@H]3CNCCNC3=O)n2n1 [Example 962, (6R)-6-{[7-bromo-2-(1,3-dimethyl-1H-pyrazol-4-yl)[1,2,4]triazolo[1,5-c]quinazolin-5-yl]amino}-1,4-diazepan-5-one] | 4.37e-09 | 10.9 | – | – | – |
| O=C1NCCCC[C@H]1Nc1nc2ccccc2c2nc(-c3cc(F)ccc3F)nn12 [Example 197, (3R)-3-{[2-(2,5-difluorophenyl)[1,2,4]triazolo[1,5-c]quinazolin-5-yl]amino}azepan-2-one] | – | – | 4.23e-09 | – | 1.82 |
